Holding throughout (type): cell-based
Series [1] relates to influenza A virus/Puerto Rico/8/34(H1N1)(PR8).
For series [2] the test system is unchanged. The source holds these as a separate data set.
Another series relates to ISG56. Conditions: for change in ISG56 expression: same method as Experimental Example 1, real-time PCR vs GAPDH, FIGS. 5 to 8.
A further series deals with interferon-β. Conditions: HEK293T cells, 1 μM RNA oligonucleotide with lipofectamine LTX, real-time PCR vs GAPDH; FIG. 3 and FIG. 4.
The mark [3] stands for this setting: A549 cells infected with influenza A virus, FIG. 10 and FIG. 11.

This is an account of results in patent publication US10519452B2, “Antiviral agent comprising RNA oligonucleotide” (priority 2015, dated 2019).

Where two headings read alike, the source gives them in different places. Oligonucleotides are written 5' to 3', each unit as a sugar letter and its base; * is a phosphorothioate linkage, no mark a phosphodiester; rarer units and linkages stand in square brackets, end groups in braces. Plain capitals give the bases only. {PPP} = triphosphate group; r = 2'-OH (RNA)

In the case of “5′-OH-Bend-GC-8 bp-PS: 5′-OH-Bend-GC-8 bp RNA oligonucleotide with phosphodiester bonds substituted with phosphorothioate bonds (rG*rG*rU*rA*rG*rA*rC*rG*rU*rU*rC*rG*rC*rG*rU*rU*rU*rG*rC*rC; 5'-hydroxy, hairpin)”, in series [1], the “antiviral activity against influenza A virus (plaque assay, titer of viruses)” value is reported as “showed antiviral activity against influenza A virus in a concentration-dependent manner”. In addition, the “antiviral activity against influenza A virus (Western blot of viral NP and NS1)” value in series [2] is on record as “showed antiviral activity against influenza A virus in a concentration-dependent manner”. In addition, in the series with ISG56, the “change in ISG56 expression” value is reported as “increased the ISG56 expression to a significant level”.
Take “5′-OH-8 bp-Bend-GC-Minimum: Minimum-length double-stranded RNA of SEQ ID NO:3 and SEQ ID NO:4, each with a 5′-hydroxy group (chain 1 GGUAGACG; chain 2 CGUUUGCC; RNA, backbone not given here; 5'-hydroxy ends)”: the “change in ISG56 expression” value in the series with ISG56 is given as “increased the ISG56 expression to a significant level”.
As for “5′-OH-Bend-GC-8 bp: Shorter hairpin RNA composed of the base sequence of SEQ ID NO:10 with a hydroxy group at the 5′-end (GGUAGACGUUCGCGUUUGCC; RNA, phosphodiester; 5'-hydroxy, hairpin)”, in the series on interferon-β, the “change in interferon-β expression” value is “increased the interferon-β expression to a significant level”.
Regarding “5′-OH-16mer-Double Bend: Double strands of two base sequences of SEQ ID NO:18, each with a 5′-hydroxy group; palindromic, two helical bend structures (chain 1 GGUAGACGCGUUUGCC; chain 2 GGUAGACGCGUUUGCC; sugars by position and backbone not given here; 5'-hydroxy ends, palindromic duplex)”, the “change in ISG56 expression” value in the series with ISG56 is reported as “increased the ISG56 expression to a significant level”.
Turning to “5′-OH-iav: RNA oligonucleotide composed of the base sequence of SEQ ID NO:6 with a hydroxy group at the 5′-end (GAGUAGAAACAAGGCUUCGGCCUGCUUUUGCUC; RNA, backbone not given here; 5'-hydroxy)”, the “change in interferon-β expression” value in the series on interferon-β is “increase the expression of interferon-β and ISG56”. In addition, the “change in ISG56 expression” value in the series with ISG56 is “increase the expression of interferon-β and ISG56”.
On to “5′-OH-Bend-GC: RNA oligonucleotide composed of the base sequence of SEQ ID NO:8 with a hydroxy group at the 5′-end (GGUAGACGCGCGCGUUCGCGCGCGCGUUUGCC; RNA, backbone not given here; 5'-hydroxy, hairpin)”, for which the “change in interferon-β expression” value in the series with interferon-β is “increased the interferon-β expression to a significant level”.
As to “5′-PPP-iav: RNA oligonucleotide composed of the base sequence of SEQ ID NO:6 with a triphosphate group at the 5′-end (GAGUAGAAACAAGGCUUCGGCCUGCUUUUGCUC; RNA, 5' {PPP}, backbone not given here)”, the “change in interferon-β expression” value in the series on interferon-β is “increase the expression of interferon-β and ISG56”. Also, the “change in ISG56 expression” value with ISG56 is “increase the expression of interferon-β and ISG56”.

B1: 5′-OH-Long_Bend Short: RNA oligonucleotide composed of the base sequence of SEQ ID NO:20 with a hydroxy group at the 5′-end (nucleic acid)
chain: GGUAGACGAAAAAAAAAAAAAAAAAAAAAAAAAAUAAUUUUUUUUUUUUUUUUUUUUUUUUUUCGUUUGCC
modifications: RNA, backbone not given here; 5'-hydroxy
Consider B1, for which, in series [2] (setting [3]), the “concentration at which expression of viral protein was significantly inhibited (Western blot)” value is 100 nM.

B2: 5′-OH-Long_Bend: Long-length RNA oligonucleotide composed of the base sequence of SEQ ID NO:19 with a hydroxy group at the 5′-end (nucleic acid)
chain: GGUAGACGAAACCAGAUAAAAAAAAAAAAAAAAAAAAAAAAAAUAAUUUUUUUUUUUUUUUUUUUUUUUUUUAUCUGGUUUCGUUUGCC
modifications: RNA, phosphodiester; 5'-hydroxy
On to B2, for which the “antiviral effect at low concentration compared with positive control (plaque assay)” value in series [1] (A549 cells, 10 nM, positive control 0.1 μg/ml poly I:C, FIG. 9B) is on record as “excellent effect corresponding to the positive control group (poly I:C)”. In addition, in series [1] (A549 cells, 10, 30 or 100 nM, titer on MDCK cells, FIG. 9B), the “antiviral activity against influenza A virus (plaque assay, titer of viruses)” value is “showed antiviral activity against influenza A virus in a concentration-dependent manner”. In addition, in series [2] (setting [3]), the “concentration at which expression of viral protein was significantly inhibited (Western blot)” value is at least 10 nM. Besides, in series [2] (A549 cells, 10 nM, positive control 0.1 μg/ml poly I:C, FIG. 9A), the “antiviral effect at low concentration compared with positive control (Western blot)” value was “excellent effect corresponding to the positive control group (poly I:C)”. Further, the “antiviral activity against influenza A virus (Western blot of viral NP and NS1)” value in series [2] (A549 cells, 10, 30 or 100 nM, transfected 24 h before infection at 0.1 MOI, FIG. 9A) was “showed antiviral activity against influenza A virus in a concentration-dependent manner”. The “change in ISG56 expression” value with ISG56 is “increased the ISG56 expression to a significant level”.

B3: 5′-OH-Long_Bend-BPS: 5′-OH-Long_Bend RNA oligonucleotide with part of phosphodiester bonds substituted with phosphorothioate bonds (nucleic acid)
chain: B2 chain
modifications: RNA, backbone not given here; 5'-hydroxy, partial phosphorothioate
B3: the “concentration at which expression of viral protein was significantly inhibited (Western blot)” value in series [2] is reported as at least 1 nM. Also, the “increase in the ISG56 expression as compared to 5′-OH-Bend-GC-8 bp” value with ISG56 (FIG. 8) is “about 7 fold”. In addition, the “change in ISG56 expression” value with ISG56 is recorded as “increased the ISG56 expression to a significant level”.

B4: 5′-OH-Int-NS1: RNA oligonucleotide composed of the base sequence of SEQ ID NO:7 with a hydroxy group at the 5′-end (nucleic acid)
chain: AGUAGAAACAAGGGUGUUUUUUAUUAUUAAAUAAGCUGAAGUGUUUGGAUCCAUUAUGUCUUUGUCACCCUGCUUUUGCU
modifications: RNA, backbone not given here; 5'-hydroxy
For the molecule B4, the “change in interferon-β expression” value in the series on interferon-β was “increased the interferon-β expression to a significant level”.
